# ChEMBL document CHEMBL6134860, “Discovery and optimization of a novel carboxamide scaffold with selective antimalarial activity” (Eur J Med Chem, 2025)
# Experiments:
# [1] = Cytotoxicity against human HepG2 cells measured after 72 hrs by hoechst 33342 staining based imaging assay; format: toxicity, cell-based
# Plasmodium falciparum [2] = experiment: microbe, parasite or virus in culture; format: functional, organism-based; conditions: W2, 72 h
# [3] = Lipophilicity, logD of compound at pH 7.4; conditions: buffer
# [4] = Metabolic stability in rat hepatocytes assessed as apparent intrinsic clearance measured per 10^6 cells
# [5] = Metabolic stability in human liver microsomes assessed as apparent intrinsic clearance
# [6] = Metabolic stability in rat hepatocytes assessed as half life
# [7] = Metabolic stability in human liver microsomes assessed as half life
# Plasmodium falciparum [8] = experiment: microbe, parasite or virus in culture; format: functional, organism-based; conditions: C2B, 72 h
# Plasmodium falciparum [9] = experiment: microbe, parasite or virus in culture; format: functional, organism-based; conditions: C235, 72 h
# Plasmodium falciparum [10] = experiment: microbe, parasite or virus in culture; format: functional, organism-based; conditions: D6, 72 h
# Plasmodium falciparum [11] = experiment: microbe, parasite or virus in culture; format: functional, organism-based; conditions: 3D7, 72 h
# [12] = Aqueous solubility of compound at pH 7.4; conditions: buffer
# Plasmodium falciparum [13] = experiment: Antiplasmodial activity against Plasmodium falciparum strain NF54 assessed as 99% parasite clearance time in presence of 2% haematocrit and 0.5 % parasitemia at 10 times EC50 followed by media with compound exchanged daily measured after 2 weeks by standard hypoxanthine assay; format: functional
Compound,CC50 at 72 h ([1]; read-out: CC50),CC50 at 72 h ([1]; read-out: pCC50 (converted)),EC50 (Plasmodium falciparum [2]; read-out: pEC50 (converted)),other results
O=C1c2sc(-c3ccc(Cl)cc3)nc2CN1c1ccc(Cl)cc1,> 10 µM,> 10 µM,> 10 µM,EC50 (Plasmodium falciparum [2]; read-out: EC50): > 10 µM
Cc1ccc(N(C)C(=O)c2ncn(-c3ccc(Cl)cc3)n2)cc1C,> 10 µM,> 10 µM,2.34 µM,–
CN(C(=O)c1ncn(-c2ccc(Cl)cc2)n1)c1ccc([N+](=O)[O-])cc1,> 10 µM,> 10 µM,2.29 µM,–
O=C(c1ccc(Cl)cc1)c1ncc(-c2ccc(Cl)cc2)o1,> 10 µM,> 10 µM,> 10 µM,EC50 (Plasmodium falciparum [2]; read-out: EC50): > 10000 µM
Cc1ccc(N(C)C(=O)c2ncn(-c3ccc(C(C)C)cc3)n2)cc1,> 10 µM,> 10 µM,0.741 µM,–
COc1ccc(N(C)C(=O)c2ncn(-c3ccc(C(C)C)cc3)n2)cc1,> 10 µM,> 10 µM,1.62 µM,–
Cc1ccc(-c2ccnc(C(=O)N(C)c3ccc(Cl)cc3)c2)cc1,> 10 µM,> 10 µM,0.49 µM,–
Cc1ccc(-c2cnc(C(=O)N(C)c3ccc(Cl)cc3)o2)cc1,> 10 µM,> 10 µM,0.676 µM,–
CN(C(=O)c1ncn(-c2ccc(Cl)cc2)n1)c1ccc(F)cc1,> 10 µM,> 10 µM,1.78 µM,–
CN(C(=O)c1ncn(-c2ccc(Cl)cc2)n1)c1ccc(Cl)cc1,> 10 µM,> 10 µM,0.525 µM,–
CN(C(=O)c1cnc(-c2ccc(Cl)cc2)s1)c1ccc(Cl)cc1,> 10 µM,> 10 µM,> 10 µM,EC50 (Plasmodium falciparum [2]; read-out: EC50): > 10 µM
O=C(c1ccc(Cl)cc1)c1cc(-c2ccc(Cl)cc2)ccn1,> 10 µM,> 10 µM,> 10 µM,EC50 (Plasmodium falciparum [2]; read-out: EC50): > 10000 µM
CC(C)c1ccc(-n2cnc(C(=O)N(C)c3ccc(Cl)cc3)n2)cc1,> 10 µM,> 10 µM,0.851 µM,–
CCc1ccc(-n2cnc(C(=O)N(C)c3ccc(OC)cc3)n2)cc1,> 10 µM,> 10 µM,0.933 µM,–
Cc1ccc(-c2nc(C)c(C(=O)N(C)c3ccc(Cl)cc3)s2)cc1,> 10 µM,> 10 µM,> 4.79 µM,EC50 (Plasmodium falciparum [2]; read-out: EC50): > 4.78 µM
O=C(Nc1ccc(-c2cc3ccccc3oc2=O)cc1)c1cccc2ccccc12,1.16 µM,1.15 µM,> 4.07 µM,EC50 (Plasmodium falciparum [2]; read-out: EC50): > 4.05 µM
CCc1ccc(-n2cnc(C(=O)N(C)c3ccc(C)c(C)c3)n2)cc1,> 10 µM,> 10 µM,2 µM,–
COc1ccc(N(C)C(=O)c2ncn(-c3ccc(Cl)cc3)n2)cc1,> 10 µM,> 10 µM,1.91 µM,–
Cc1nc(-c2ccc(Cl)cc2)sc1C(=O)N(C)c1ccc(Cl)cc1,> 10 µM,> 10 µM,> 10 µM,EC50 (Plasmodium falciparum [2]; read-out: EC50): > 10 µM

Compound,CC50 at 72 h ([1]; read-out: CC50),CC50 at 72 h ([1]; read-out: pCC50 (converted)),EC50 (Plasmodium falciparum [2]; read-out: pEC50 (converted)),other results
Cc1ccc(-c2cncc(C(=O)N(C)c3ccc(Cl)cc3)c2)cc1,> 10 µM,> 10 µM,–,logD [3]: 4.32; CLH(app) [4]: > 92.4 µL/min; microsomal CLint [5]: 228 µL/min/mg; half-life [6]: < 7.5 min; half-life [7]: 6.1 min
O=C(Nc1ncn(-c2ccc(Cl)cc2)n1)c1ccc(Cl)cc1,> 10 µM,> 10 µM,3.09 µM,–
Cc1ccc(C(=O)N(C)c2ncn(-c3ccc(Cl)cc3)n2)cc1,> 10 µM,> 10 µM,4.27 µM,–
Cc1ccc(C(=O)Nc2ncn(-c3ccc(C)cc3)n2)cc1,> 10 µM,> 10 µM,2.51 µM,–
CCc1ccc(-n2cnc(C(=O)N(C)c3ccc(Cl)cc3)n2)cc1,> 10 µM,> 10 µM,0.617 µM,–
CC(=O)c1ccc(N(C)C(=O)c2ncn(-c3ccc(Cl)cc3)n2)cc1,> 10 µM,> 10 µM,2.4 µM,–
CCc1ccc(-n2cnc(C(=O)N(C)c3ccc(C)cc3)n2)cc1,> 10 µM,> 10 µM,0.575 µM,–
COc1ccc(-n2cnc(C(=O)N(C)c3ccc(C)cc3)n2)cc1,> 10 µM,> 10 µM,5.75 µM,–
CN(C(=O)c1ncn(-c2ccc(Cl)cc2)n1)c1ccc(C(F)(F)F)cc1,> 6.93 µM,> 6.92 µM,3.8 µM,–
Cc1ccc(-c2ncc(C(=O)N(C)c3ccc(Cl)cc3)[nH]2)cc1,> 10 µM,> 10 µM,3.39 µM,–
CN(C(=O)c1ncc(-c2ccc(Cl)cc2)o1)c1ccc(Cl)cc1,–,–,0.17 µM,EC50 (Plasmodium falciparum [8]; read-out: EC50): 0.168 µM; EC50 (Plasmodium falciparum [8]; read-out: pEC50 (converted)): 0.166 µM; EC50 (Plasmodium falciparum [9]; read-out: EC50): 0.281 µM; EC50 (Plasmodium falciparum [9]; read-out: pEC50 (converted)): 0.282 µM; EC50 (Plasmodium falciparum [10]; read-out: EC50): 0.84 µM; EC50 (Plasmodium falciparum [10]; read-out: pEC50 (converted)): 0.832 µM; EC50 (Plasmodium falciparum [2]; read-out: EC50): 0.17 µM; EC50 (Plasmodium falciparum [11]; read-out: EC50): 0.502 µM; EC50 (Plasmodium falciparum [11]; read-out: pEC50 (converted)): 0.501 µM
Cc1ccc(N(C)C(=O)c2ncn(-c3ccc(C)cc3)n2)cc1,> 10 µM,> 10 µM,1.74 µM,logD [3]: 3.15; CLH(app) [4]: > 92.4 µL/min; microsomal CLint [5]: 125 µL/min/mg; half-life [6]: < 7.5 min; half-life [7]: 11.1 min
[2H]C([2H])([2H])N(C(=O)c1cc(-c2ccc(Cl)cc2)ccn1)c1ccc(Cl)cc1,–,–,0.2 µM,EC50 (Plasmodium falciparum [8]; read-out: EC50): 0.104 µM; EC50 (Plasmodium falciparum [8]; read-out: pEC50 (converted)): 0.105 µM; EC50 (Plasmodium falciparum [9]; read-out: EC50): 0.199 µM; EC50 (Plasmodium falciparum [9]; read-out: pEC50 (converted)): 0.2 µM; EC50 (Plasmodium falciparum [10]; read-out: EC50): 0.608 µM; EC50 (Plasmodium falciparum [10]; read-out: pEC50 (converted)): 0.603 µM; EC50 (Plasmodium falciparum [2]; read-out: EC50): 198 µM; EC50 (Plasmodium falciparum [11]; read-out: EC50): 0.588 µM; EC50 (Plasmodium falciparum [11]; read-out: pEC50 (converted)): 0.589 µM
Cc1ccc(N(C)C(=O)c2ncn(-c3ccc(Cl)cc3)n2)cc1,> 10 µM,> 10 µM,0.562 µM,logD [3]: 3.36; CLH(app) [4]: > 92.4 µL/min; solubility [12]: 4.4 µM; microsomal CLint [5]: 41.1 µL/min/mg; half-life [6]: < 7.5 min; half-life [7]: 33.8 min
CN(C(=O)c1ncn(-c2ccc(Cl)cc2)n1)c1ccc(Cl)c(Cl)c1,> 10 µM,> 10 µM,0.933 µM,–
C[C@H]1[C@@H](O)O[C@@H]2O[C@@]3(C)CC[C@H]4[C@H](C)CC[C@@H]1[C@@]24OO3 [ARTENIMOL],–,–,0.000417 µM,EC50 (Plasmodium falciparum [8]; read-out: pEC50 (converted)): 0.000178 µM; EC50 (Plasmodium falciparum [9]; read-out: pEC50 (converted)): 0.00295 µM; EC50 (Plasmodium falciparum [10]; read-out: pEC50 (converted)): 0.00155 µM; EC50 (Plasmodium falciparum [11]; read-out: pEC50 (converted)): 0.000661 µM
O=C1C(O)=C([C@H]2CC[C@H](c3ccc(Cl)cc3)CC2)C(=O)c2ccccc21 [ATOVAQUONE],–,–,0.000759 µM,EC50 (Plasmodium falciparum [8]; read-out: pEC50 (converted)): < 1 µM; EC50 (Plasmodium falciparum [9]; read-out: pEC50 (converted)): 0.00195 µM; EC50 (Plasmodium falciparum [10]; read-out: pEC50 (converted)): 0.000603 µM; EC50 (Plasmodium falciparum [11]; read-out: pEC50 (converted)): 0.000851 µM
COc1ccc(C[C@H](N)C(=O)N[C@H]2[C@@H](O)[C@H](n3cnc4c(N(C)C)ncnc43)O[C@@H]2CO)cc1 [PUROMYCIN],–,0.646 µM,0.0631 µM,–
CCc1nc(N)nc(N)c1-c1ccc(Cl)cc1 [PYRIMETHAMINE],–,–,–,Time (Plasmodium falciparum [13]): 25.9 h
